Measured values published in patent US20100310514A1, “Anti-Inflammatory Bacteria” (priority 2009, published 2010).
Residues, ends and D or L forms follow the SMILES beside them. *: point of attachment. Cbz = O=C(OCc1ccccc1)*

Assays:
[1] = test system: Smad6, Smad7, p21Waf1/Cip1, p15Ink4a, p27Kip1, BMP ligands; experiment: RT-PCR / real-time PCR mRNA expression in TMK1 cells; assay type: cell-based, human; conditions: MG-132, 4 h (1 μmol/L in FIG. 6)
[2] = test system: Smad1/5, Smad2/3, cyclin E2; experiment: Western blot of Smad/BMP signaling proteins in TMK1 cells; assay type: cell-based, human; conditions: MG-132, 4 h (1 μmol/L in FIG. 6)
AGS and TMK1 cells = conditions: all LL-37 treatment groups
Experimental: Cell culture and viability assay—The human gastric adenocarcinoma cell line AGS was purchased from American Type Culture Collection (Manassas, Va., USA). The gastric adenocarcinoma cell TMK1 was obtained from Dr. Eiichi Tahara (University of Hiroshima, Hiroshima, Japan). AGS and TMK1 cells were maintained in RPMI 1640 (Invitrogen) containing 10% fetal bovine serum (Invitrogen), 100 U/mL penicillin G, 100 μg/mL streptomycin, and maintained at 37° C., 95% humidity, and 5% carbon dioxide. Cell viability was determined by lactate dehydrogenase release assay (Roche, Indianapolis, Ind., USA).

AGS cells = conditions: LL-37 20 μg/ml, 24 h
[3] = test system: dextran sodium sulfate-induced ulcerative colitis; experiment: DSS-induced ulcerative colitis, oral bacteria given during 7 days of DSS; assay type: in vivo, Balb/c mice; conditions: 600 mg/kg orally once daily
Experimental: Male Balb/c mice 6-8 weeks old were used in the following experiments. They were allowed free access to standard laboratory chow and tap water. All animals were housed in an air-conditioned room with controlled temperature (22° C.±1° C.), humidity (65%-70%), and day/night cycle (12:12-hr light: dark). Mice were induced with acute colitis by giving 3% dextran sulfate sodium (DSS, molecular weight, 35-50 kDa) prepared in drinking water for 7 days (from Day 0 to Day 7). Normal control mice received tap water throughout the experiment. […] In a different group of transformed NZ3900, 0.25 ng/ml nisin was added and further incubated for 3 h. Bacteria were then harvested by centrifugation (5000 rpm, 15 min) and washed twice with sterilized PBS (pH 7.4) and resuspended in sterilized water to give 2×10^10 cfu/ml. Mice were given intragastrically (i.g.) with 0.5 ml (1×10^10 cfu) bacteria once daily at the beginning of the DSS feeding. Animals were sacrificed at the end of 7 days DSS drinking and bacteria feeding. Colonic myeloperoxidase (MPO) was measured as described previously (Guo X, et al. Gastroenterology 117, 884-892 (1999)). In brief, colon tissues were homogenized in an ice-cold […] PBS (pH 6.0) solution with 0.5% hexa-decyl-trimethyl-ammonium bromide. The homogenate was freeze-thawed three times, followed by repeated sonication for 60 seconds each and centrifugation for 20 minutes at 14,000 revolutions per minutes at 4° C. The activity of the supernatant was determined spectrophotometrically at 450 nm. The final value was expressed as enzyme units per mg of protein. Crypt loss is a histological finding in colitis. Therefore, histological analysis of mice administered with formulations per FIG. 16. The crypts were graded on a 4 grade scale as follows: Grade 0: intact crypt; Grade 1: loss of the basal ⅓ of the crypt; Grade 2: loss of the basal ⅔ of the crypt; Grade 3: loss of entire crypt with surface epithelium remaining intact; Grade 4: loss of both the entire crypt and surface epithelium.

CC(C)C[C@@H](C=O)NC(=O)[C@H](CC(C)C)NC(=O)[C@H](CC(C)C)NC(=O)OCc1ccccc1 [MG-132] (Cbz-Leu-Leu-Leu-aldehyde)
BMP4 mRNA expression [1]: dose-dependently increased
Smad1/5 phosphorylation [2]: dose-dependently increased

C=C1/C(=C\C=C2/CCC[C@]3(C)[C@@H]([C@H](C)CCCC(C)(C)O)CC[C@@H]23)C[C@@H](O)C[C@@H]1O [1α,25-dihydroxylvitamin D3]
TMK1 cell proliferation on induction of endogenous LL-37 (TMK1 cells; 1 μmol/L VD3 for 24 h, read 48 h post-treatment): inhibited cell proliferation

CC[C@H](C)[C@H](NC(=O)[C@H](CCCCN)NC(=O)[C@H](CCC(=O)O)NC(=O)[C@H](CCCCN)NC(=O)[C@H](CO)NC(=O)[C@H](CCCCN)NC(=O)[C@H](CCCNC(=N)N)NC(=O)[C@H](Cc1ccccc1)NC(=O)[C@H](Cc1ccccc1)NC(=O)[C@H](CC(=O)O)NC(=O)CNC(=O)[C@H](CC(C)C)NC(=O)[C@@H](N)CC(C)C)C(=O)NCC(=O)N[C@@H](CCCCN)C(=O)N[C@@H](CCC(=O)O)C(=O)N[C@@H](Cc1ccccc1)C(=O)N[C@@H](CCCCN)C(=O)N[C@@H](CCCNC(=N)N)C(=O)N[C@H](C(=O)N[C@H](C(=O)N[C@@H](CCC(N)=O)C(=O)N[C@@H](CCCNC(=N)N)C(=O)N[C@H](C(=O)N[C@@H](CCCCN)C(=O)N[C@@H](CC(=O)O)C(=O)N[C@@H](Cc1ccccc1)C(=O)N[C@@H](CC(C)C)C(=O)N[C@@H](CCCNC(=N)N)C(=O)N[C@@H](CC(N)=O)C(=O)N[C@@H](CC(C)C)C(=O)N[C@H](C(=O)N1CCC[C@H]1C(=O)N[C@@H](CCCNC(=N)N)C(=O)N[C@H](C(=O)N[C@@H](CCC(=O)O)C(=O)N[C@@H](CO)C(=O)O)[C@@H](C)O)C(C)C)[C@@H](C)CC)C(C)C)[C@@H](C)CC [LL-37]
cell viability (lactate dehydrogenase release) (AGS and TMK1 cells): unaffected
inhibition of TMK1 cell proliferation ([3H]thymidine incorporation) (TMK1 cells; LL-37 20 μg/ml, 24 h): about 60%
inhibition of AGS cell proliferation ([3H]thymidine incorporation) (AGS cells): 10%

O=C(O)c1cc(/N=N/c2ccc(S(=O)(=O)Nc3ccccn3)cc2)ccc1O [Sulfasalazine, sulfasalazine]
MPO activity [3]: did not affect
mucus level [3]: did not affect
number of apoptotic cells in the colonic mucosa [3]: did not affect
number of microorganisms in the colon [3]: did not affect
